Experimental data from paper PMC7334220, “Diamond Blackfan anemia is mediated by hyperactive Nemo-like kinase” (Nature Communications, 2020).
pEC50, pIC50: −log10 of the molar value. Like-named read-outs stand apart in the source and are kept apart here.

Assays:
[1] = tested on: RPS19-insufficient Lin-Kit+ progenitors from mouse embryonic (E14.5–E15.5) fetal livers; experiment: c-Kit+ erythroid expansion rescue in murine RPS19-insufficient progenitors (Cell titer-Glo); assay type: cell-based; details: for rescue of c-Kit+ erythroid expansion: 10 µM, murine RPS19-insufficient model, Fig. 1b; for pEC50: Mus musculus, read-out: EC50 of improved erythroid growth
Method: Cells were plated at 2000 cell per well in 96-well plates in the presence or absence of doxycycline. Relative amounts of live cells were quantified by luciferase-based Cell titer-Glo® assay. b TGFβR1 inhibitors were assessed for their ability to increase cell expansion in RPS19-insuffiency. As a control, vehicle alone (no doxycycline) is represented at the far left while all other samples were treated with doxycycline to induce RPS19-insufficiency. c Kit^+ erythroid progenitors were grown in the absence of doxycycline and in the presence of 10 µM of indicated compound. In addition, cells were treated with 5 ng/ml of TGFβ1 for 5 days before being subjected to Cell titer-Glo® assay. d Differentiating cord blood CD34^+ progenitors were transduced with shRNA against luciferase or RPS19 and treated with inhibitors at working concentrations for TGFβ inhibition every three days. […] Cells were counted and CD235^+ erythroid (i and iii) and CD11b^+ myeloid cell (ii and iv) percentages were determined by flow cytometry. The number of erythroid or myeloid cells is expressed as a percentage of the number of that lineage with no cytokine or drug treatment. Bars represent means ± SD with individual data points overlaid. n = 3 independent experiments performed in triplicate. Statistics: two-tailed Student’s t test, significant *p < 0.05. Also see Supplementary Fig. 1. Erythroid expansion is depicted in red while myeloid is in purple. Source data are provided as a Source Data file.
(1 picture or pasted object on this page, not shown here)

NLK = target: T1, NLK (Homo sapiens, UniProt Q9UBE8); experiment: NLK in vitro kinase assay (NLK, c-Myb, Raptor substrates); assay type: biochemical; details: for inhibition of NLK-mediated phosphorylation of NLK substrates NLK, c-Myb and Raptor: added to activated NLK in vitro, Supplementary Fig. 1c
T1 construct: NLK, p38, or ALK5 for in vitro kinase assays were immunopurified from Kp53A1 cells; endogenous in cells; immunoprecipitated with anti-NLK (Abcam AB97642)
T1 sequence (Q9UBE8 1-527): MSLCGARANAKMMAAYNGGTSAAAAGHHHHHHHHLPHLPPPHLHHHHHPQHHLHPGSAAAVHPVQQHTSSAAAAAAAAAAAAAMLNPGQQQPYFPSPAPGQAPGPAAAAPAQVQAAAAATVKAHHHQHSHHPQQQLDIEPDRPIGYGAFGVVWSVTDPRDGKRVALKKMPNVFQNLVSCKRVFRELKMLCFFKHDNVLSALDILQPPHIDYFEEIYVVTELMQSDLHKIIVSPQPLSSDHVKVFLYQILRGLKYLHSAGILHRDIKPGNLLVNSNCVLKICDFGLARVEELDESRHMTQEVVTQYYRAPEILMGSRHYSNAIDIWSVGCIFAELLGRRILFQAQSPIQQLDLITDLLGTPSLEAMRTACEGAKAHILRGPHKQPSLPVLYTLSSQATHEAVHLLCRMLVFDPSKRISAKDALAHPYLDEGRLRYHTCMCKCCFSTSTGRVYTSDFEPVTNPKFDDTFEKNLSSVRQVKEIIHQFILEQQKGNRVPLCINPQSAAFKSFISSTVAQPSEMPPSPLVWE
Method: Equivalent protein was loaded between samples. b—blue Transduced progenitors were differentiated for 15 days and sorted for surface expression of CD235 + , CD41 + and CD11b + population NLK mRNA was assessed by qRT-PCR. c Control and shRPS19-transduced CB progenitors were differentiated for 10 days prior to separation into CD71^+ and CD71^- populations and assessed for pThr298-NLK phosphorylation by Western blot analysis. d—purple CB CD34 + progenitors were transduced with shRNA against luciferase (shLuc) or RPS19 (shRPS19) along with CFP-NLK and YFP-NLK and differentiated for 10 days. NLK dimerization was quantified by FRET. e—left panel NLK was immunoprecipitated from transduced differentiating CD71^+ and CD71^- populations after 10 days, and incubated in the presence of ATP, Mg^2+ and dephosphorylated NLK (i orange), c-Myb (ii—blue) and Raptor (iii—green) for 30 min at 37 °C. Phosphorylation was detected by a combination of anti^-phosphoserine-HRP and anti-phosphothreonine-HRP antibodies, or mouse anti-phosphoserine and anti-mouse-HRP antibodies. e—right panel For comparison, NLK in vitro kinase activity was assessed from CD235^+, CD41^+ and CD11b^+ populations enriched after identical treatments. f A panel of eight small molecule p38 inhibitors were titrated into in vitro kinase assays in the presence of activated NLK or p38 from stimulated Kp53A1 cells. The IC50 for NLK and p38 for each compound was calculated. The data are represented diagrammatically with IC50 values represented as vertical lines along a concentration gradient for NLK and p38. Kinase activity is represented as blue and the extent of inhibition is depicted in white. […] Bars represent means ± SD with individual data points overlaid. n = 3 independent experiments performed in triplicate.Statistics: two-tailed Student’s t test, significant *p < 0.05. Also see Supplementary Figs. 3 and 4. Source data are provided as a Source Data file. […] Inhibitors were added to cells at indicated concentrations with a final DMSO concentration of 0.5%. […] IC50 calculations were obtained using 8–9 concentrations of compound and generated using the IC50 Calculator software by AAT Bioquest®. NLK, p38, or ALK5 for in vitro kinase assays were immunopurified from Kp53A1 cells. NLK activation was induced by incubating cells at 32° for 24-48 h, p38 by stimulating with IL-3, IL-6, SCF, and Epo at the same concentrations used for differentiating erythroid progenitors.
For NLK kinase analysis, cultures were treated as indicated and lysed for 30 min at 4 °C in 750 μl of kinase lysis buffer (50 mM Tris [pH 7.4], 5 mM EDTA, 250 mM NaCl, 0.1% Triton X-100, 50 mM NaF, 0.1 trypsin inhibitor unit of aprotinin per ml, 50 μg of phenylmethylsulfonyl fluoride per ml, 100 μM sodium vanadate, 1 μg of leupeptin per ml). For TGFβR1 kinase analysis, cells were lysed in membrane kinase buffer (10 mM Tris-HCl (pH8.0), 140 mM NaCl, 300 mM KCl, 0.5% Triton X-100, and 0.5% sodium deoxycholate with complete protease inhibitor cocktail (Roche)). Extracts were clarified, and equivalent protein was incubated overnight at 4 °C with antibody (NLK: #AB97642; Abcam, TGFβR1: V22; Santa Cruz Biotechnology). Immune complexes were collected with Catch and Release® V2.0 Reversible Immunoprecipitation System and diluted in kinase buffer (25 mM Tris [pH 7.4], 10 mM MgCl2, 1 mM dithiothreitol). When cell numbers were limiting, NLK activity was amplified by adding 0.5 µg dephosphorylated NLK prior to performing kinase reaction. 50 μl of kinase buffer containing NLK or TGFβR1 sample and 5 μM ATP was incubated in the presence of biotinylated substrate (NLK, c-Myb, or Raptor for NLK and Smad2 or Smad3 for TGFβR1) immobilized on streptavidin-coated 96-well plates.

Row | SMILES | rescue of c-Kit+ erythroid expansion [1] | pEC50 [1] | pIC50 (NLK) | inhibition of NLK-mediated phosphorylation of NLK substrates NLK, c-Myb and Raptor (NLK) | SD208 concentration at which NLK activation was significantly inhibited in in vitro assays (NLK; rebuttal letter) | pEC50 ([1]; murine RPS19-insufficient cells, Supplementary Fig. 1a) | pIC50 (NLK; Supplementary Fig. 1e, read-out: IC50 against NLK)
1 | Fc1ccc(Cl)cc1-c1nc(Nc2ccncc2)c2nccnc2n1 [SD208] | significantly rescued | 6.15 | 6.36 | ~ 80% | below 0.1 uM |  | 
2 | NC(=O)c1ccc(-c2nc(-c3ccc4c(c3)OCO4)c(-c3ccccn3)[nH]2)cc1 [SB431542] | significantly rescued |  |  | 55% |  | 5.30 | 5.97
